Test results as given in patent US8163795B2, “Chroman derivatives, medicaments and use in therapy” (Marshall Edwards, Inc., priority 2004, dated 2012).
Where two headings read alike, the source gives them in different places.

Tests used:
MM200 melanoma cell line = test: HMC combination with cisplatin (synergy); assay type: cell-based; conditions: for IC50: Table 8, single agent
Procedure: (§1) IC50 values were determined for each cell line. Cells were seeded in 96-well plates at an appropriate cell density as determined from growth kinetics analysis and cultured for 5 days in the absence and presence of the test compounds. Cell proliferation was assessed after the addition of 20 μl of 3-4,5 dimethylthiazol-2,5-diphenyl tetrazolium bromide (MTT, 2.5 mg/ml in PBS, Sigma) for 3-4 hrs at 37° C. according to manufacturer's instructions. IC50 values were calculated from semi-log plots of % of control proliferation on the y-axis against log dose on the x-axis.
3-D model analysis of the cytotoxic interaction between drug A and drug B enables the representation of predicted inhibitory effect of two drugs in combination in 3 dimensions to reveal actual regions of synergy or antagonism. The 3D synergy plots are based on a theory of “Theretical Additivity” (TA) as outlined by Kanzawa et al (Int. J. Cancer 71, 311-319 (1997)). Theoretical Additivity was calculated from the cytotoxicities of drug A and drug B as monotherapies using the following formula which assumes the drugs are mutually exclusive inhibitors: […]
The TA is calculated for each combination of drug concentrations and subtracted from the observed experimental effect for each combination to give a measurement of synergisitic action.
HMC synergy with cisplatin was assessed either in combination over 5 days exposure or in sequence (HMC→cisplatin) against the MM200 melanoma cell line. It was difficult to assess for synergisitic toxicity using a change in IC50 as a measure of synergy due to HMC toxicity as monotherapy (Table 8). […] Evidence of synergy using the HMC-cisplatin combination was further assessed using the HMC→cisplatin sequence (24 hr exposure to each compound in sequence) against the melanoma cell line MM200. Using change in IC50 to assess for synergy it was noted that HMC at concentrations of 2 μM markedly chemosensitised the MM200 cells to cisplatin by >1000 fold (Table 8). HMC induced chemosensitisation of MM200 cells to cisplatin was confirmed using 3D analysis of the data (FIG. 11B).

[1] = system: SKOV-3 ovarian cancer cell line; test: Proliferation assay (MTT); assay type: cell-based; conditions: Homo sapiens, SK-OV-3; Table 2.1; Ovarian SKOV-3; read-out: IC50
[2] = system: IGR3 melanoma cells (Trail-resistant); test: Apoptosis incidence in melanoma cells; assay type: cell-based
rabbit kidney cells (RK) = test: Proliferation assay (MTT), normal cell toxicity; assay type: cell-based; conditions: Oryctolagus cuniculus; rabbit kidney cells; read-out: IC50
Procedure: (§2) The normal cell line NFF (neonatal foreskin fibroblasts) was a sift from Dr. Peter Parsons (Queensland Institute of Medical Research). RK (rabbit kidney) cells were obtained from Miller Whalley (Macquarie University). Both cell lines were cultured in RPMI supplemented with 10% FCS(CSL, Australia), penicillin (100 U/ml), streptomycin ([…]), L-glutamine (2 mM) and sodium bicarbonate (1.2 g/L), and cultured at 37° C. in a humidified atmosphere of 5% CO2.
as §1

[3] = system: Neonatal foreskin fibroblasts (NFF); test: Proliferation assay (MTT), normal cell toxicity; assay type: cell-based, Human; conditions: Homo sapiens, Fibroblast, read-out: IC50
Procedure: as §2, §1

[4] = system: HPAC (CRL-2119) pancreatic cancer cell line; test: Proliferation assay (MTT); assay type: cell-based, human; conditions: Homo sapiens, HPAC, read-out: IC50
[5] = system: MEL-RM melanoma cells (TRAIL sensitive); test: Apoptosis incidence in melanoma cells; assay type: cell-based
[6] = system: TRAIL-sensitive and -resistant melanoma cells; test: Apoptosis incidence, statements over several melanoma cell lines; assay type: cell-based; conditions: for incidence of apoptosis: 4 μM
[7] = system: Mel-RM melanoma cell line; test: HMC combination with doxorubicin (synergy); assay type: cell-based; conditions: for IC50: Table 12, single agent; for Change Factor (Combined): 5-day combination
Procedure: IC50 values were determined for each cell line. Cells were seeded in 96-well plates at an appropriate cell density as determined from growth kinetics analysis and cultured for 5 days in the absence and presence of the test compounds. […] IC50 values were calculated from semi-log plots of % of control proliferation on the y-axis against log dose on the x-axis.
3-D model analysis of the cytotoxic interaction between drug A and drug B enables the representation of predicted inhibitory effect of two drugs in combination in 3 dimensions to reveal actual regions of synergy or antagonism. […] Theoretical Additivity was calculated from the cytotoxicities of drug A and drug B as monotherapies using the following formula which assumes the drugs are mutually exclusive inhibitors: […]
HMC synergy with doxorubicin was assessed either in combination over 5 days exposure or in sequence (HMC→doxorubicin) against the Mel-RM melanoma cell line.

[8] = system: Mel-AT melanoma cells (Trail +ve/Caspase 8 −ve); test: Apoptosis incidence in melanoma cells; assay type: cell-based
[9] = system: CP70 ovarian cancer cell line; test: Proliferation assay (MTT); assay type: cell-based; conditions: Ovarian CP70, read-out: IC50
[10] = 120 h, 5 days exposure, read-out: IC50, Combined (monotherapy)
[11] = 24 hr exposure, read-out: IC50, 24 hr (monotherapy)

SMILES: COc1ccc(C2c3ccc(O)cc3OCC2c2ccc(O)cc2)cc1 (stereo not shown) [Compound 1, 3-(4-hydroxyphenyl)-4-(4-methoxyphenyl)chroman-7-ol]
- IC50 (MM200 melanoma cell line; [10]): 0.72 µM
- Change Factor (HMC first) (MM200 melanoma cell line; HMC 1 uM 24 hr then cisplatin 24 hr): −1.31
- Change Factor (HMC first) (MM200 melanoma cell line; HMC 2 uM 24 hr then cisplatin 24 hr): >10000
- chemosensitisation of MM200 cells to cisplatin (change in IC50) (MM200 melanoma cell line; HMC 2 μM, HMC→cisplatin sequence): > 1000 fold
- Change Factor (HMC first) (MM200 melanoma cell line; HMC 5 uM 24 hr then cisplatin 24 hr): >10000
- Change Factor (HMC first) (MM200 melanoma cell line; HMC 10 uM 24 hr then cisplatin 24 hr): >10000
- IC50 (MM200 melanoma cell line; [11]): 20.6 µM
- IC50 [1]: 2.26 µM
- Percent Apoptosis ([2]; 24 hr exposure, 1 uM): 8%
- Percent Apoptosis ([2]; 24 hr exposure, 2 uM): 11%
- Percent Apoptosis ([2]; 24 hr exposure, 4 uM): 39%
- Percent Apoptosis ([2]; 24 hr exposure, 8 uM): 41%
- Percent Apoptosis ([2]; 24 hr exposure, 20 uM): 32%
- Percent Apoptosis ([2]; 48 hr exposure, 1 uM): 1%
- Percent Apoptosis ([2]; 48 hr exposure, 2 uM): 9%
- Percent Apoptosis ([2]; 48 hr exposure, 4 uM): 21%
- Percent Apoptosis ([2]; 48 hr exposure, 8 uM): 38%
- Percent Apoptosis ([2]; 48 hr exposure, 20 uM): 38%
- IC50 (rabbit kidney cells (RK)): 61 µM
- IC50 ([3]; Table 1, Neonatal Foreskin Fibroblasts (Human, NFF)): 86.1 ± 7.6 µM
- IC50 ([3]; NFF): 86 µM
- IC50 ([4]; Table 2.1, Pancreatic CRL-2119): 14.1 ± 1.16 µM
- IC50 ([4]; Table 2.2, Pancreatic HPAC): 2.8 ± 0.9 µM
- Percent Apoptosis ([5]; 24 hr exposure, 1 uM): 0%
- Percent Apoptosis ([5]; 24 hr exposure, 2 uM): 8%
- Percent Apoptosis ([5]; 24 hr exposure, 4 uM): 25%
- Percent Apoptosis ([5]; 24 hr exposure, 8 uM): 39%
- Percent Apoptosis ([5]; 24 hr exposure, 20 uM): 38%
- Percent Apoptosis ([5]; 48 hr exposure, 1 uM): 1.5%
- Percent Apoptosis ([5]; 48 hr exposure, 2 uM): 8%
- Percent Apoptosis ([5]; 48 hr exposure, 4 uM): 22%
- Percent Apoptosis ([5]; 48 hr exposure, 8 uM): 38%
- Percent Apoptosis ([5]; 48 hr exposure, 20 uM): 30%
- apoptosis ([6]; 2 μM, 24 and 48 hrs of exposure, all TRAIL-sensitive and -resistant melanoma cells): 7-10%
- incidence of apoptosis ([6]; 24 hr exposure, the other cell lines (not MEL-RM, IGR3)): ~9%
- incidence of apoptosis ([6]; 48 hr, all cell lines examined): 21-42%
- IC50 [7, 10]: 0.54 µM
- Change Factor (HMC first) ([7]; HMC 1 uM 24 hr then doxorubicin 24 hr): 1.62
- Change Factor (HMC first) ([7]; HMC 2 uM 24 hr then doxorubicin 24 hr): 12.22
- chemosensitisation of Mel-RM cells to camptothecin (change in IC50) ([7]; HMC 2 μM, sequence protocol): ~12 fold
- IC50 [7, 11]: 50.5 µM
- Change Factor (Combined) ([7]; doxorubicin with HMC 1 uM): −2.06
- Change Factor (Combined) ([7]; doxorubicin with HMC 2 uM): ?HMC effect
- Percent Apoptosis ([8]; 24 hr exposure, 1 uM): 0%
- Percent Apoptosis ([8]; 24 hr exposure, 2 uM): 6%
- Percent Apoptosis ([8]; 24 hr exposure, 4 uM): 9%
- Percent Apoptosis ([8]; 24 hr exposure, 8 uM): 23%
- Percent Apoptosis ([8]; 24 hr exposure, 20 uM): 24%
- Percent Apoptosis ([8]; 48 hr exposure, 1 uM): 1%
- Percent Apoptosis ([8]; 48 hr exposure, 2 uM): 7%
- Percent Apoptosis ([8]; 48 hr exposure, 4 uM): 25%
- Percent Apoptosis ([8]; 48 hr exposure, 8 uM): 59%
- Percent Apoptosis ([8]; 48 hr exposure, 20 uM): 35%
- IC50 ([9]; Table 2.1): 1.21 ± 0.29 µM
- IC50 ([9]; Table 2.2 (further studies)): 2.1 µM
